# Results from ChEMBL document CHEMBL1795248, “N,N'-Dialkylaminoalkylcarbonyl (DAAC) prodrugs and aminoalkylcarbonyl (AAC) prodrugs of 4-hydroxyacetanilide and naltrexone with improved skin permeation properties” (Bioorg Med Chem Lett, 2011).
# Assay: Chemical stability of the compound assessed as half life in phosphate buffer at pH 6.0
# Format: physicochemical
row,SMILES,half-life
1,CC(=O)Nc1ccc(OC(=O)CN(C)C)cc1.Cl,1.28 h
2,CC(=O)Nc1ccc(OC(=O)CCN(C)C)cc1.Cl,1.88 h
3,CCN(CC)CC(=O)Oc1ccc(NC(C)=O)cc1.Cl,1.76 h
4,CCN(CC)CCC(=O)Oc1ccc(NC(C)=O)cc1.Cl,1.32 h
5,CC(=O)Nc1ccc(OC(=O)CCN2CCCCC2)cc1.Cl,1.33 h
6,CC(C)[C@H](N)C(=O)Oc1ccc2c3c1O[C@H]1C(=O)CC[C@@]4(O)[C@@H](C2)N(CC2CC2)CC[C@]314.O=C(O)C(F)(F)F,0.53 h
7,CC(=O)Nc1ccc(OC(=O)[C@H](C)N)cc1.Cl [ACETAMINOPHEN ALANINATE HYDROCHLORIDE],0.539 h
8,CC(=O)Nc1ccc(OC(=O)[C@@H]2CCCN2)cc1.Cl [ACETAMINOPHEN PROLINATE HYDROCHLORIDE],0.248 h
9,CC(=O)Nc1ccc(OC(=O)[C@@H](N)C(C)C)cc1.Cl [ACETAMINOPHEN VALINATE HYDROCHLORIDE],1.52 h
